In assay [1] the target is T1, full-length androgen receptor (HEK293 cells stably expressing) (Homo sapiens, UniProt P10275).
T1 construct: HEK293 cells stably expressing the full-length androgen receptor were seeded; expressed in transfected cells
T1 sequence (P10275 1-920): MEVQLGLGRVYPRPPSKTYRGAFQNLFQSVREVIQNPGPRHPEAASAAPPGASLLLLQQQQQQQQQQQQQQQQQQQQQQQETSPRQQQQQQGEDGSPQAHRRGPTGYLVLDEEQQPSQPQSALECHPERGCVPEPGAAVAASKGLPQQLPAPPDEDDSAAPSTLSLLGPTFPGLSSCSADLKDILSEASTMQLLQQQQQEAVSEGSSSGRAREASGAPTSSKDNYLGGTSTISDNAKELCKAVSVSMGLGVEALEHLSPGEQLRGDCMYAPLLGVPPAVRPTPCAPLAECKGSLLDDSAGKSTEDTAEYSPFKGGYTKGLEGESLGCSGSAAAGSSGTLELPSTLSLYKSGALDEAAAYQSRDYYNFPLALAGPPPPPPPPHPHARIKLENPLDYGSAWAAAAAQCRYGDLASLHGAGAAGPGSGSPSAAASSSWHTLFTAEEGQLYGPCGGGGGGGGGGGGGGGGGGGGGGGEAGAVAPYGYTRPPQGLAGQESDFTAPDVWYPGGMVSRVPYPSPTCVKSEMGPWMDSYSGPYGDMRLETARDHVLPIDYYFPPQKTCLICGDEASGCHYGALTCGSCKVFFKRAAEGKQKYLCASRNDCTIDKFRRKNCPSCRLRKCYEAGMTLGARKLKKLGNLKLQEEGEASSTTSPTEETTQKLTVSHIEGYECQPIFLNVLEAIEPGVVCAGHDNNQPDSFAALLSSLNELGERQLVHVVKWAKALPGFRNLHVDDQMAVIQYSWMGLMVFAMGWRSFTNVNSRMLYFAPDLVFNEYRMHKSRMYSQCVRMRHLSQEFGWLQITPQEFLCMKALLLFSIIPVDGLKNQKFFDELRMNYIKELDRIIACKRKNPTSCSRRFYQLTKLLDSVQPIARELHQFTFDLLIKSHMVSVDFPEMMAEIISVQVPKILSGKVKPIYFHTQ
The assay can be described thus: AR antagonism assay. In kind it is cell-based. Particulars: testosterone 1 nM, 20 h, Steady-glo. As for the experimental part:
AR antagonism assay: To evaluate AR antagonist activity, test compound was added to the assay plate (top dose 10 μM, 3 fold serial dilution, 10 point dose response). HEK293 cells stably expressing the full-length androgen receptor were seeded at a density of 20000 cells/well in the assay plate. The assay plate was then incubated at room temperature for 10 minutes and at 37° C., 5% CO2 for 20 minutes. Testosterone is added to the assay plate at 1 nM final concentration and the assay plate incubated at 37° C., 5% CO2 for 20 h. After the incubation period, Steady-glo was added to the assay plate and mixed at room temperature for 20 minutes on an orbital shaker, before reading out on the EnVision plate reader.

In assay [2] the target is T2, AR (cytosol from LnCaP cells) (Homo sapiens, UniProt P10275, T878A).
T2 construct: endogenous in cells; host or cells: LNCaP cytosol
T2 sequence (P10275 1-920 T878A): T1 sequence (P10275 1-920) with T878A
The assay can be described thus: AR binding assay. As to conditions: 3H-R1881 1 nM, 4° C. 24 hrs. As for the experimental part:
AR binding assay: To assess AR binding, test compound (top dose 10 μM, 4 fold serial dilution, 8 point dose response) and control (progesterone) were transferred to the assay plate. Cytosol from LnCaP cells was added to the plate, followed by addition of radiolabeled ^3H-R1881 at a final concentration of 1 nM. The plate was sealed, and the reaction was incubated at 300 rpm at 4° C. for 24 hrs. Radioligand absorption buffer (10 mM Tris-HCl, pH 7.4; 1.5 mM EDTA; 1 mM DTT; 0.25% charcoal; 0.0025% dextran) was then added to the plate, mixed, and incubated at 4° C. for 15 minutes. The plate was then centrifuged at 3000 rpm for 30 minutes at 4° C. The supernatant was transferred to the scint-tube and Tri-carb was used for scintillation counting.

Assay [3] deals with LNCap cells. Put plainly: Cell viability assay LNCap. Particulars: Homo sapiens, 144 h, 6 days, CellTiterGlo. Type of assay: cell-based. As for the experimental part:
(§1) Cell viability assay: LNCap, 22Rv1, MCF7, MDAMB361, T47D, and IEC6 cells were seeded at a density of 500-2000 cells/well in 96 well plates, and a ‘T0’ (timepoint 0) was included along with the assay plate. The plates were then incubated at 37° C., 5% CO2 in a cell culture incubator overnight. On the next day, the ‘T0’ plate was assayed using CellTiterGlo (Promega, Inc) according to the manufacturer's instructions. The appropriate compounds were diluted in DMSO and added to the assay plate (final DMSO concentration of 0.1-0.2%) on the next day. The assay plates were incubated for 6 days at 37° C., 5% CO2. After the incubation period, the plates were assayed using CellTiterGlo (Promega, Inc) according to the manufacturer's instructions and luminescence was read on the EnVision plate reader. Inhibition of the tested compounds was determined by the following formula: Inhibition rate (%)=(1−(RLU compound−RLU day0)/(RLU control−RLU day0))*100%. GraphPadPrism was used to analyze the data and determine GI50/IC50 values.
In general terms: In ATP-based viability assays light output follows the ATP content of the culture.

The test system of assay [4] is IEC6 cells. Put plainly: Cell viability assay IEC6. Type of assay: cell-based. As to conditions: Rattus norvegicus, IEC-6, 144 h; 6 days, CellTiterGlo. As for the experimental part: as §1
In assay [5] the test system is 22Rv1 cells. The assay can be described thus: Cell viability assay 22Rv1. In kind it is cell-based. As to conditions: Homo sapiens, 22Rv1, 144 h; 6 days, CellTiterGlo. Here is the method:
as §1

SMILES strings stand for the structures. Numbering of substitutions follows the chain as printed.

What is called IC50 is the concentration at which inhibition is half-maximal. By GI50 is commonly meant the concentration at which growth is held to half of that of the control. Take `CCc1cc2ncc(CN3CCN(c4ccc(C(=O)NCC5CCN(c6ccc(C(=O)N[C@H]7CC[C@H](Oc8ccc(C#N)c(Cl)c8)CC7)nn6)CC5)nc4)CC3)cc2[nH]c1=O` [Compound 1, N-((1r,4r)-4-(3-Chloro-4-cyanophenoxy)cyclohexyl)-6-(4-((5-(4-((7-ethyl-6-oxo-5,6-dihydro-1,5-naphthyridin-3-yl)methyl)piperazin-1-yl)picolinamido)methyl)piperidin-1-yl)pyridazine-3-carboxamide]: the half-maximal inhibitory concentration (IC50) was greater than 10 µM in assay [1], 0.1 to 1 µM in assay [2] and greater than 30 µM in assay [4]. Further, the concentration for 50% growth inhibition (GI50) was no more than 0.5 µM in assay [3] and 0.5 to 5 µM in assay [5].
The corresponding values for `CCc1cc2ncc(CN3CCN(CC4CCN(c5ccc(C(=O)N[C@H]6CC[C@H](Oc7ccc(C#N)c(Cl)c7)CC6)nn5)CC4)CC3)cc2[nH]c1=O` [Compound 4, N-((1r,4r)-4-(3-Chloro-4-cyanophenoxy)cyclohexyl)-6-(4-((4-((7-ethyl-6-oxo-5,6-dihydro-1,5-naphthyridin-3-yl)methyl)piperazin-1-yl)methyl)piperidin-1-yl)pyridazine-3-carboxamide] are greater than 10 µM, less than 0.1 µM, greater than 30 µM, no more than 0.5 µM and no more than 0.5 µM.
`CCc1cc2ncc(CN3CCN(CC4CCN(c5ccc(C(=O)N[C@H]6C(C)(C)[C@H](Oc7ccc(C#N)c(Cl)c7)C6(C)C)nn5)CC4)CC3)cc2[nH]c1=O` [Compound 13, N-((1r,3r)-3-(3-Chloro-4-cyanophenoxy)-2,2,4,4-tetramethylcyclobutyl)-6-(4-((4-((7-ethyl-6-oxo-5,6-dihydro-1,5-naphthyridin-3-yl)methyl)piperazin-1-yl)methyl)piperidin-1-yl)pyridazine-3-carboxamide]: the concentration for half-maximal inhibition (IC50) in assay [1] is greater than 10 µM; in assay [2] it was less than 0.1 µM; in assay [4], 0.5 to 5 µM. The 50% growth inhibitory concentration (GI50) in assay [3] and in assay [5] was 0.5 to 5 µM each time.
On to `CCc1cc2ncc(CN3CCN(c4ccc(C(=O)N5CCN(CC6CCN(c7ccc(C(=O)N[C@H]8CC[C@H](Oc9ccc(C#N)c(Cl)c9)CC8)nn7)CC6)CC5)nc4)CC3)cc2[nH]c1=O` [Compound 59, N-((1r,4r)-4-(3-Chloro-4-cyanophenoxy)cyclohexyl)-6-(4-((4-(5-(4-((7-ethyl-6-oxo-5,6-dihydro-1,5-naphthyridin-3-yl)methyl)piperazin-1-yl)picolinoyl)piperazin-1-yl)methyl)piperidin-1-yl)pyridazine-3-carboxamide], for which the results for the concentration for half-maximal inhibition (IC50) in assay [1], in assay [2] and in assay [4] were greater than 10 µM, less than 0.1 µM and greater than 30 µM, respectively. Also, the GI50 in assay [3] and in assay [5] was 0.5 to 5 µM each time.
Take `CCc1cc2ncc(CN3CCN(c4ccc(C(=O)N5CCN(C(=O)C6CCN(c7ccc(C(=O)N[C@H]8CC[C@H](Oc9ccc(C#N)c(Cl)c9)CC8)nn7)CC6)CC5)nc4)CC3)cc2[nH]c1=O` [Compound 60, N-((1r,4r)-4-(3-Chloro-4-cyanophenoxy)cyclohexyl)-6-(4-(4-(5-(4-((7-ethyl-6-oxo-5,6-dihydro-1,5-naphthyridin-3-yl)methyl)piperazin-1-yl)picolinoyl)piperazine-1-carbonyl)piperidin-1-yl)pyridazine-3-carboxamide]: the IC50 in assay [1] is greater than 10 µM; in assay [2], less than 0.1 µM; in assay [4], greater than 30 µM. The 50% growth inhibitory concentration (GI50) in assay [3] and in assay [5] was 0.5 to 5 µM each time.
Take `CCc1cc2ncc(CN3CCN(c4ccc(-c5nnc([C@H](Nc6ccc(C#N)c(Cl)c6)[C@H](C)O)o5)cc4)CC3)cc2[nH]c1=O` [Compound 63, 2-Chloro-4-(((1R,2S)-1-(5-(4-(4-((7-ethyl-6-oxo-5,6-dihydro-1,5-naphthyridin-3-yl)methyl)piperazin-1-yl)phenyl)-1,3,4-oxadiazol-2-yl)-2-hydroxypropyl)amino)benzonitrile]: the half-inhibitory concentration (IC50) in assay [1] was greater than 10 µM; in assay [2], 0.1 to 1 µM; in assay [4], greater than 30 µM. Besides, the GI50 in assay [3] was 0.5 to 5 µM; in assay [5], 5 to 30 µM.
The corresponding values for `CCc1cc2ncc(CN3CCN(c4ccc(-c5nnc([C@H](Nc6ccc(C#N)c(Cl)c6C)[C@H](C)O)o5)cc4)CC3)cc2[nH]c1=O` [Compound 64, 2-Chloro-4-(((1R,2S)-1-(5-(4-(4-((7-ethyl-6-oxo-5,6-dihydro-1,5-naphthyridin-3-yl)methyl)piperazin-1-yl)phenyl)-1,3,4-oxadiazol-2-yl)-2-hydroxypropyl)amino)-3-methyl Benzonitrile] are greater than 10 µM, 1 to 10 µM, 0.5 to 5 µM, 0.5 to 5 µM and 5 to 30 µM.
Turning to `CCc1cc2ncc(CN3CCN(C[C@H]4CC[C@H](COc5cc(F)c([C@@H]6c7[nH]c8ccccc8c7C[C@@H](C)N6CC(C)(C)F)c(F)c5)CC4)CC3)cc2[nH]c1=O` [Compound 75, 7-((4-(((1R,4r)-4-((3,5-Difluoro-4-((1R,3R)-2-(2-fluoro-2-methylpropyl)-3-methyl-2,3,4,9-tetrahydro-1H-pyrido[3,4-b]indol-1-yl)phenoxy)methyl)cyclohexyl)methyl)piperazin-1-yl)methyl)-3-ethyl-1,5-naphthyridin-2(1H)-one], the 50% inhibitory concentration (IC50) in assay [4] was 5 to 30 µM.

Source of the values: patent publication US12006314B2, “Anti-cancer nuclear hormone receptor-targeting compounds” (Nuvation Bio Inc., priority 2021, dated 2024).
